Laboratory results as given in patent US5583222A, “Azepanes and their ring homologues having protein kinase inhibiting activity” (Hoffmann-La Roche Inc., priority 1994, dated 1996).
Counter-ions that a name gives are not always drawn.

Assays:
protein kinase C (PKC) [1] = assay: Inhibition of protein kinase C (PKC) (in cells), MARCKS phosphorylation in 3T3 fibroblasts; type: cell-based; details: Fibroblast, TPA 100 nM, phosphorylation of 80 kD MARCKS protein, 37° C., read-out: Test Procedure C: IC50, inhibition of PKC in cells
Protocol: C: Inhibition of protein kinase C (PKC) (in cells): The intracellular protein kinase C (PKC) activity is determined in 3T3 fibroblasts by measuring the phosphorylation of a PKC-specific substrate, namely 80 kD MARCKS protein (myristoylated alanine-rich C-kinase substrate). The endogenous ATP is firstly labelled by incubating the cells at 37° C. with 80-200 μCi/ml of inorganic ^32 P-labelled phosphate. Then, the activation of the PKC is effected by phorbol ester (tetradecanoyl-phorbol 13-acetate (TPA); 100 nM). The test substances are used 15 minutes prior to TPA in dimethyl sulphoxide (DMSO)/buffer in the concentration range 0.1-100 μM. After incubation at 37° C. for 15 minutes the reaction is stopped by removing the medium and the cells are lysed by the addition of 1% Triton X-100 in phosphate buffer. The cell extract is subjected to a heat treatment (20 minutes at 90° C.) and subsequently centrifuged, whereby the MARCKS protein remains dissolved in the supernatant. This is then separated by discontinuous, one-dimensional SDS gel electrophoresis and the radioactivity in the 80 kD protein band is measured by a phosphoimager.

T-lymphocyte = assay: Inhibition of T-lymphocyte proliferation; type: cell-based; details: human mononuclear cells, PHA 1 μg/ml, [3H]thymidine, 3rd and 4th day, read-out: Test Procedure D: IC50, inhibition of T-lymphocyte proliferation
Protocol: D: Inhibition of T-lymphocyte proliferation: Human mononuclear cells are isolated from venous blood of a healthy donor and a suspension of 5×10^5 cells/ml in RPMI 1640 medium, which contains 10% FCS, is prepared. The cells are stimulated with 1 μg/ml of T-cell-specific mitogen phytohaemagglutinin (PHA). 200 μl aliquots of cell suspension are treated in microtitre plates with the test substances in serial dilutions in the concentration range 0.03-10 μM. The cell proliferation is measured on the 3rd and 4th day by incubation with 1 μCi of [^3 H]thymidine during the last 6 hours of the respective day. The radioactivity taken up is measured with a liquid scintillation counter.

HaCaT-cells = assay: Inhibition of keratinocyte proliferation a) HaCaT-cells; type: cell-based; details: Homo sapiens, 48 hours, [3H]thymidine incorporation, read-out: Test Procedure E a: IC50, inhibition of keratinocyte proliferation
Protocol: (§1) E Inhibition of keratinocyte proliferation: a) HaCaT-cells (immortalised human cells line): HaCaT-cell culture is effected in medium DMEM/F12 (mixture ratio 3/1) which contains serum (FCS, 5%), epidermal growth factor (EGF), hydrocortisone, cholera toxin, insulin, L-glutamine and penicillin/streptomycin. 5000 cells in 0.2 ml of medium are used per well in microtitre plates. The test substances are diluted in dimethyl sulphoxide/(DMSO)/medium and used in the concentration range 0.01-10 μM at the start of the culture. The cells are then incubated at 37° C. for 48 hours; radioactive [^3 H]thymidine is added during the last 6 hours. After disrupting the cells with trypsin incorporated activity is measured in a scintillation counter. The inhibitory activity of the test substance is given as the micromolar concentration which is required to reduce the thymidine incorporation by 50% (IC50 [μM]).

protein kinase C (PKC) [2] = assay: Inhibition of protein kinase C (PKC) (isolated enzyme); type: biochemical; details: partially purified PKC from swine brain; histone H1 substrate; 10 μM ATP; pH 7.4; 32° C., 2 minutes; read-out: Test Procedure A: IC50, inhibition of PKC (isolated enzyme)
Protocol: A: Inhibition of protein kinase C (PKC) (isolated enzyme): Protein kinase C (PKC) activity is determined by measuring the transfer of ^32 P-labelled phosphate from ^32 P-γ-ATP (10 μM)to histone H1 (200 μg/ml) as the substrate. Partially purified PKC from swine brain is used as the enzyme source [DEAE chromatography according to the method of U. Kikkawa et al. (Methods Enzymol. 99, 288, 1983)]. Activation of the PKC is effected by phospholipid vesicle prepared by ultrasound treatment of a mixture of 0.05 ml of phosphatidylserine (10 mg/ml) and 0.005 ml of diolein (10 mg/ml) in 5 ml of Tris-HCl buffer (20 mM, pH 7.4). The test substances are used in dimethyl sulphoxide (DMSO)/buffer in the concentration range 0.001-100 μM. The test is started by the addition of enzyme; after incubation at 32° C. for 2 minutes the reaction is stopped by the addition of 20% trichloroacetic acid (with 1% SDS and 1% sodium pyrophosphate). The precipitated radioactive histone protein is separated from excess ATP by filtration over nitrocellulose membranes and the radioactivity on the filter is measured in a scintillation counter. The inhibitory activity of the test substance is given as the micromolar concentration which is required to reduce the PKC activity by 50% (IC50 [μM]).

[3] = molecular target: cAMP-dependent protein kinase (PKA); assay: Inhibition of cAMP-dependent protein kinase (PKA); type: biochemical; details: partially purified PKA from swine brain; histone H1 substrate; 10 μM ATP; 2 μM cyclic AMP; pH 7.4; 32° C., 2 minutes; read-out: Test Procedure B: IC50, inhibition of PKA
Protocol: B: Inhibition of CAMP-dependent protein kinase (PKA): PKA activity is determined by measuring the transfer of ^32 P-labelled phosphate from ^32 P-γ-ATP (10 μM) tO histone H1 (333 μg/ml) as the substrate. Partially purified PKA from swine brain is used as the enzyme source [DEAE chromatography according to the method of U. Kikkawa et al. (Methods Enzymol. 99, 288, 1983)]. Activation of the PKA is effected by cyclic AMP (2 μM) in Tris-HCl buffer (20 mM, pH 7.4). The test substances are used in dimethyl sulphoxide (DMSO)/buffer in the concentration range 0.001-100 μM. The test is started by the addition of enzyme; after incubation at 32° C. for 2 minutes the reaction is stopped by the addition of 20% trichloroacetic acid (with 1% SDS and 1% sodium pyrophosphate). The precipitated radioactive histone protein is separated from excess ATP by filtration over nitrocellulose membranes and the radioactivity on the filter is measured in a scintillation counter. The inhibitory activity of the test substance is given as the micromolar concentration which is required to reduce the PKA activity by 50% (IC50 [μM]).

Primary keratinocytes = assay: Inhibition of keratinocyte proliferation b) Primary keratinocytes; type: cell-based; details: primary keratinocytes from human foreskin, 48 hours, [3H]thymidine incorporation, read-out: Test Procedure E b: IC50, inhibition of keratinocyte proliferation
Protocol: as §1, with “proliferation:” for “proliferation: a) HaCaT-cells (immortalised human cells line):”, “[μM]). b) Primary keratinocytes: Keratinocytes, isolated from human foreskin, are used in the primary culture up to passage 7. The culture and test conditions are identical with those of the HaCaT-cells with the exception of the use of 10000 cells per well.” for “[μM]).”

SMILES	IC50 (protein kinase C (PKC) [1]) [nM]	IC50 (T-lymphocyte) [nM]	IC50 (HaCaT-cells) [nM]	IC50 (protein kinase C (PKC) [2]) [nM]	IC50 [3] [nM]	IC50 (Primary keratinocytes) [nM]
COc1ccc(O)c(C(=O)c2ccc(C(=O)O[C@@H]3CCCNC[C@H]3NC(=O)c3cc(C)c(O)c(C)c3)cc2)c1F [Example 20, 4-(2-Fluoro-6-hydroxy-3-methoxy-benzoyl)-benzoic acid (3R,4R)-3-(4-hydroxy-3,5-dimethyl-benzoylamino)-azepan-4-yl ester hydrochloride (1:1)]	340	100 to 6000	3000 to 10000			
Cc1cc(C(=O)N[C@@H]2CNCCC[C@H]2OC(=O)c2ccc(C(=O)c3c(O)ccc(F)c3F)cc2)cc(C)c1O [Example 25, 4-(2,3-Difluoro-6-hydroxy-benzoyl)-benzoic acid (3R,4R)3-(4-hydroxy-3,5-dimethyl-benzoylamino)-azepan-4-yl ester hydrochloride (1:1)]	800	1000		40	14	
Cc1cc(C(=O)N[C@@H]2CNCCC[C@H]2OC(=O)c2ccc(C(=O)c3c(O)ccc4c3OCCO4)cc2)cc(C)c1O [Example 41]	> 1000	300		40	13	
COc1cc(O)c(C(=O)c2ccc(C(=O)O[C@@H]3CCCNC[C@H]3NC(=O)c3ccc(O)cc3)cc2)c(F)c1 [Example 57, 4-(2-Fluoro-6-hydroxy-4-methoxy-benzoyl)-benzoic acid (3R,4R)-3-(4-hydroxy-benzoylamino)-azepan-4-yl ester hydrochloride (1:1)]	2000		300 to 600	867	5	600
O=C(N[C@@H]1CNCCC[C@H]1OC(=O)c1ccc(C(=O)c2cc3ccccc3cc2O)cc1)c1ccc(O)cc1 [Example 60, 4-(3-Hydroxy-naphthalen-2-ylcarbonyl)-benzoic acid (3R,4R)-3-(4-hydroxy-benzoylamino)-azepan-4-yl ester hydrochloride (1:1)]	2700	2000 to 5000	300 to 500	1200	9	300 to 6000
